The supplement of paper PMC11061612

What was measured:
[1] = test system: NCI-H2066 (Squamous Cell Lung Carcinoma); assay: Bliss excess, mean over the matrix (fraction); higher = more synergy
In short: (§1)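 Bliss excess equals the observed combination effect minus the expected value EA + EB − EA·EB, where EA and EB are the effects of each agent alone. Combination Emax is the second-highest inhibition within the matrix. Inhibition was scaled from CellTiter-Glo 2.0 luminescence, with 0 set by vehicle wells and 1 by blank wells, after 72 hours of two-drug dosing of cells plated in 1536-well plates.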

[2] = test system: 8-MG-BA (Glioblastoma); assay: as above
In short: as §1

[3] = test system: CAL-29 (Bladder Carcinoma); assay: as above
In short: as §1

[4] = test system: TT2609-C02 (Thyroid Gland Carcinoma); assay: combination Emax (second highest fraction inhibited in the dose matrix, 72 h); higher = more inhibition; extreme values may be limits of the assay
In short: as §1

[5] = test system: NCI-H2066 (Squamous Cell Lung Carcinoma); assay: as above
In short: as §1

[6] = test system: NY (Osteosarcoma); assay: as above
In short: as §1

[7] = test system: CAS-1 (Glioblastoma); assay: as above
In short: as §1

[8] = test system: JSC-1 (B-Cell Non-Hodgkin's Lymphoma); assay: as above
In short: as §1

[9] = test system: GI-ME-N (Neuroblastoma); assay: as above
In short: as §1

[10] = test system: NCI-H1650 (Lung Adenocarcinoma); assay: as above
In short: as §1

[11] = test system: NCI-H1581 (Non-Small Cell Lung Carcinoma); assay: as above
In short: as §1

[12] = test system: CAPAN-2 (Pancreatic Carcinoma); assay: as above
In short: as §1

[13] = test system: COLO-824 (Breast Carcinoma); assay: as above
In short: as §1

[14] = test system: NCI-H64 (Small Cell Lung Carcinoma); assay: as above
In short: as §1

[15] = test system: SISO (Cervical Carcinoma); assay: as above
In short: as §1

[16] = test system: BICR22 (Oral Cavity Carcinoma); assay: as above
In short: as §1

[17] = test system: 8-MG-BA (Glioblastoma); assay: as above
In short: as §1

[18] = test system: KARPAS-422 (B-Cell Non-Hodgkin's Lymphoma); assay: as above
In short: as §1

[19] = test system: PA-1 (Ovarian Carcinoma); assay: as above
In short: as §1

[20] = test system: ARH-77 (Non-Cancerous); assay: as above
In short: as §1

Row | SMILES | Bliss excess [1] | Bliss excess [2] | Bliss excess [3] | combination Emax [4] | combination Emax [5] | combination Emax [6] | combination Emax [7] | combination Emax [8] | combination Emax [9] | combination Emax [10] | combination Emax [11] | combination Emax [12] | combination Emax [13] | combination Emax [14] | combination Emax [15] | combination Emax [16] | combination Emax [17] | combination Emax [18] | combination Emax [19] | combination Emax [20]
1 | CCN(CCO)CCCOc1ccc2c(Nc3cc(CC(=O)Nc4cccc(F)c4)[nH]n3)ncnc2c1 [AZD2811] + C=CCn1c(=O)c2cnc(Nc3ccc(N4CCN(C)CC4)cc3)nc2n1-c1cccc(C(C)(C)O)n1 [AZD1775] (first compound max 1 µM, partner max 1 µM) | -0.0589 | 0.0299 | 0.0208 | 0.361 | 0.203 | 0.527 | 0.496 | 0.809 | 0.29 | 0.346 | 0.688 | 0.299 | 0.813 | 0.813 | 0.568 | 0.468 | 0.744 | 0.569 | 0.767 | 0.95
2 | CN(CCO)CC[C@H](CSc1ccccc1)Nc1ccc(S(=O)(=O)NC(=O)c2ccc(N3CCC([C@@H](O)c4ccccc4-c4ccc(Cl)cc4)CC3)cc2)cc1S(=O)(=O)C(F)(F)F [AZD4320] + C[C@@H](Nc1cc(F)cc(F)c1)c1cc(C(=O)N(C)C)cc2c(=O)cc(N3CCOCC3)oc12 [AZD8186] (first compound max 1 µM, 7x7, partner max 3 µM) | -0.0671 | -0.0301 | -0.0215 | 0.294 | 0.64 | 0.589 | 0.623 | 0.546 | 0.469 | 0.402 | 0.287 | 0.678 | 1 | 0.967 | 0.315 | 0.838 | 0.316 | 0.999 | 0.927 | 0.899
3 | NC1(C(=O)N[C@@H](CCO)c2ccc(Cl)cc2)CCN(c2ncnc3[nH]ccc23)CC1 [Capivasertib] + CC(=O)c1c(C)c2cnc(Nc3ccc(N4CCNCC4)cn3)nc2n(C2CCCC2)c1=O [Palbociclib] (first compound max 10 µM, 7x7, partner max 10 µM) | -0.033 | -0.0501 | 0.0198 | 0.376 | 0.507 | 0.161 | 0.635 | 0.669 | 0.422 | 0.351 | 0.373 | 0.242 | 0.612 | 0.332 | 0.201 | 0.329 | 0.597 | 0.771 | 0.909 | 0.705
4 | COc1nnc2ccc(N3CCC(c4ccc(OCCN5CCN(C)C(=O)[C@H]5C)cc4)CC3)nn12 [AZD5153] + CCN(CCO)CCCOc1ccc2c(Nc3cc(CC(=O)Nc4cccc(F)c4)[nH]n3)ncnc2c1 [AZD2811] (first compound max 1 µM, 7x7, partner max 1 µM) | -0.0352 | 0.0121 | 0.0084 | 0.492 | 0.344 | 0.517 | 0.646 | 0.775 | 0.341 | 0.415 | 0.437 | 0.296 | 0.845 | 0.609 | 0.486 | 0.463 | 0.74 | 0.676 | 0.904 | 0.82
5 | COc1cccc(OCCCN)c1-c1cc(Nc2cnc(C#N)cn2)n[nH]1 [Prexasertib] + CN(C)CCCOc1ccc(-c2ccc3ncc4c(c3c2)n(C2CCOCC2)c(=O)n4C)cn1 [AZD0156] (first compound max 1 µM, 7x7, partner max 1 µM) | -0.0379 | -0.0349 | -0.0479 | 0.335 | 0.402 | 0.62 | 0.674 | 1 | 0.529 | 0.51 | 0.284 | 0.592 | 0.785 | 0.787 | 0.745 | 0.742 | 0.934 | 0.904 | 0.725 | 1
6 | Cc1c2c(nn1C)CSCc1cc(n(C)n1)CSc1cc(c3ccccc3c1)OCCCc1c(C(=O)O)n(C)c3c-2c(Cl)ccc13 [AZD5991] + CC1(C)CCC(CN2CCN(c3ccc(C(=O)NS(=O)(=O)c4ccc(NCC5CCOCC5)c([N+](=O)[O-])c4)c(Oc4cnc5[nH]ccc5c4)c3)CC2)=C(c2ccc(Cl)cc2)C1 [Venetoclax] (first compound max 1 µM, 7x7, partner max 1 µM) | -0.0303 | 0.048 | 0.0101 | 0.178 | 0.169 | 0.729 | 0.286 | 1 | 0.354 | 0.184 | 0.968 | 0.153 | 0.997 | 0.359 | 0.151 | 0.727 | 0.855 | 1 | 0.964 | 0.859
7 | C=CCn1c(=O)c2cnc(Nc3ccc(N4CCN(C)CC4)cc3)nc2n1-c1cccc(C(C)(C)O)n1 [AZD1775] + O=C(c1cc(Cc2n[nH]c(=O)c3ccccc23)ccc1F)N1CCN(C(=O)C2CC2)CC1 [Olaparib] (first compound max 1 µM, partner max 10 µM) | -0.0407 | -0.0163 | -0.0722 | 0.358 | 0.377 | 0.578 | 0.52 | 0.856 | 0.337 | 0.403 | 0.568 | 0.394 | 0.685 | 0.869 | 0.679 | 0.508 | 0.77 | 0.678 | 0.756 | 0.929
8 | Cn1cnc2c(F)c(Nc3ccc(Br)cc3Cl)c(C(=O)NOCCO)cc21 [Selumetinib] + C=CCn1c(=O)c2cnc(Nc3ccc(N4CCN(C)CC4)cc3)nc2n1-c1cccc(C(C)(C)O)n1 [AZD1775] (first compound max 10 µM, partner max 1 µM) | -0.0776 | -0.0543 | 0.0074 | 0.655 | 0.351 | 0.527 | 0.39 | 0.945 | 0.209 | 0.34 | 0.639 | 0.419 | 0.76 | 0.858 | 0.539 | 0.523 | 0.797 | 0.623 | 0.875 | 0.979
9 | COc1cccc(OCCCN)c1-c1cc(Nc2cnc(C#N)cn2)n[nH]1 [Prexasertib] + Cc1cc2ncnn2cc1Nc1ncc2c(n1)n(C1CCOCC1)c(=O)n2C [AZD7648] (first compound max 1 µM, 7x7, partner max 10 µM) | 0.0214 | -0.058 | -0.0754 | 0.276 | 0.437 | 0.674 | 0.71 | 1 | 0.563 | 0.55 | 0.418 | 0.593 | 0.783 | 0.846 | 0.759 | 0.761 | 0.951 | 0.908 | 0.734 | 0.994
10 | CC1(C)CCC(CN2CCN(c3ccc(C(=O)NS(=O)(=O)c4ccc(NCC5CCOCC5)c([N+](=O)[O-])c4)c(Oc4cnc5[nH]ccc5c4)c3)CC2)=C(c2ccc(Cl)cc2)C1 [Venetoclax] + C=CCn1c(=O)c2cnc(Nc3ccc(N4CCN(C)CC4)cc3)nc2n1-c1cccc(C(C)(C)O)n1 [AZD1775] (first compound max 1 µM, partner max 1 µM) | -0.0598 | -0.0307 | -0.0167 | 0.639 | 0.203 | 0.741 | 0.615 | 0.888 | 0.272 | 0.433 | 0.32 | 0.453 | 0.967 | 0.942 | 0.694 | 0.782 | 0.755 | 0.995 | 0.847 | 0.997
11 | Cn1cnc2c(F)c(Nc3ccc(Br)cc3Cl)c(C(=O)NOCCO)cc21 [Selumetinib] + CC(C)n1c(=O)n(C)c2cnc3cc(F)c(-c4ccc(OCCCN5CCCCC5)nc4)cc3c21 [AZD1390] (first compound max 10 µM, 7x7, partner max 0.3 µM) | -0.061 | -0.018 | -0.0073 | 0.663 | 0.254 | 0.181 | 0.241 | 0.584 | 0.178 | 0.132 | 0.455 | 0.378 | 0.302 | 0.105 | 0.0869 | 0.334 | 0.116 | 0.123 | 0.276 | 0.318
12 | COc1cccc2c1C(=O)c1c(O)c3c(c(O)c1C2=O)C[C@@](O)(C(=O)CO)C[C@@H]3O[C@H]1C[C@H](N)[C@H](O)[C@H](C)O1 [Doxorubicin] + Cc1cc2ncnn2cc1Nc1ncc2c(n1)n(C1CCOCC1)c(=O)n2C [AZD7648] (first compound max 1 µM, 7x7, partner max 10 µM) | -0.0396 | 0.0675 | 0.0489 | 0.414 | 0.262 | 0.581 | 0.775 | 0.97 | 0.812 | 0.591 | 0.866 | 0.197 | 0.501 | 0.606 | 0.909 | 0.945 | 0.938 | 0.954 | 0.892 | 0.972
13 | Cc1cc2ncnn2cc1Nc1ncc2c(n1)n(C1CCOCC1)c(=O)n2C [AZD7648] + CN(C)CCCOc1ccc(-c2ccc3ncc4c(c3c2)n(C2CCOCC2)c(=O)n4C)cn1 [AZD0156] (first compound max 10 µM, 7x7, partner max 1 µM) | -0.026 | 0.029 | -0.0282 | 0.0937 | 0.321 | 0.286 | 0.314 | 0.303 | 0.157 | 0.25 | 0.369 | 0.253 | 0.283 | 0.279 | 0.16 | 0.384 | 0.31 | 0.479 | 0.239 | 0.54
